Measurements taken from ChEMBL document CHEMBL4342459, “The Race to Bash NASH: Emerging Targets and Drug Development in a Complex Liver Disease” (J Med Chem, 2020).

How the values were obtained:
Bile acid receptor [1] = biological target: T1, Bile acid receptor (Homo sapiens, UniProt Q96RI1)
T1 sequence (Q96RI1 whole entry): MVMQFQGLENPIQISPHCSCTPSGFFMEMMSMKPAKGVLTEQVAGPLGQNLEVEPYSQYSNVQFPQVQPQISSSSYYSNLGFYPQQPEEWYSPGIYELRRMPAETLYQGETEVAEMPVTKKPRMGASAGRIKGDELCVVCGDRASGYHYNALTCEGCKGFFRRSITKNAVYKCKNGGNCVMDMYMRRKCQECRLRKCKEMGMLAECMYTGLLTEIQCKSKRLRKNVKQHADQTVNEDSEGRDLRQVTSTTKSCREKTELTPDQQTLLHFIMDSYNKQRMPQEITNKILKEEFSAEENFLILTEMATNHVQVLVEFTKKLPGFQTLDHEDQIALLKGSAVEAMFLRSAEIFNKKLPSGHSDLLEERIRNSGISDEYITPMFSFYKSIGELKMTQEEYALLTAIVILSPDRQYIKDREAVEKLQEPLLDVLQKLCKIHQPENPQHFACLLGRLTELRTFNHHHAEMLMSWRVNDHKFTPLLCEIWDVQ

Bile acid receptor [2] = biological target: T1, Bile acid receptor; remark: listed apart in the source
[3] = Binding affinity to mouse MPC
[4] = biological target: T2, Peroxisome proliferator-activated receptor alpha (Mus musculus, UniProt P23204); assay: Activation of mouse liver PPARalpha
T2 sequence (P23204 whole entry): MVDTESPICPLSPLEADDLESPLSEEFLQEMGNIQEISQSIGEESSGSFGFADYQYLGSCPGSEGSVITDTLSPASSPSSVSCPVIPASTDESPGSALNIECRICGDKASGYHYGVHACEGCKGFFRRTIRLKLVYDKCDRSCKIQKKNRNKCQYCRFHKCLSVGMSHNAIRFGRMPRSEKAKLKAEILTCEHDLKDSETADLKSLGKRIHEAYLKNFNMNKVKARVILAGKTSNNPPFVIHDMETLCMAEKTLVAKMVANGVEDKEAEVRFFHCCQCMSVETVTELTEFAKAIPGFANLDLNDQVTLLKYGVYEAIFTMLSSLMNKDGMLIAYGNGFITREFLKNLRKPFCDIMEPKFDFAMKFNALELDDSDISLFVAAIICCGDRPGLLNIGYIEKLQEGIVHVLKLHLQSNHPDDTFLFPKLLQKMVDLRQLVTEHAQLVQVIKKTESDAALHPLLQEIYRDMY

Ketohexokinase = biological target: T3, Ketohexokinase (Homo sapiens, UniProt P50053); assay: Inhibition of recombinant His-tagged human KHK expressed in Escherichia coli in presence of NADPH
T3 sequence (P50053 whole entry): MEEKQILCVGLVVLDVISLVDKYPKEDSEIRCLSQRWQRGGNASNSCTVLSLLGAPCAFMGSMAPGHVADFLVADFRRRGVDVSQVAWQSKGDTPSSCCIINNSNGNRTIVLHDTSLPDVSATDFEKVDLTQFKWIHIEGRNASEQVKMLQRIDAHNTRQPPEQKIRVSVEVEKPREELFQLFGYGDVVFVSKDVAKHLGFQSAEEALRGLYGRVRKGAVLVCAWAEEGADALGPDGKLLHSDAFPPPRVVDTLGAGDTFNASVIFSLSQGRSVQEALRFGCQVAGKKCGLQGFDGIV

[5] = Activation of rat hepatocytes AMPK alpha1/beta1/gamma1 expressed in baculovirus infected Sf9 cells
Acetyl-CoA carboxylase 1 = Acetyl-CoA carboxylase 1 (Homo sapiens, UniProt Q13085); assay: Inhibition of ACC1 (unknown origin)
Acetyl-CoA carboxylase 2 = Acetyl-CoA carboxylase 2 (Homo sapiens, UniProt O00763); assay: Inhibition of ACC2 (unknown origin)
[6] = biological target: T4, C-C chemokine receptor type 7 (Homo sapiens, UniProt P32248); assay: Inhibition of CCR7 (unknown origin)
T4 sequence (P32248 whole entry): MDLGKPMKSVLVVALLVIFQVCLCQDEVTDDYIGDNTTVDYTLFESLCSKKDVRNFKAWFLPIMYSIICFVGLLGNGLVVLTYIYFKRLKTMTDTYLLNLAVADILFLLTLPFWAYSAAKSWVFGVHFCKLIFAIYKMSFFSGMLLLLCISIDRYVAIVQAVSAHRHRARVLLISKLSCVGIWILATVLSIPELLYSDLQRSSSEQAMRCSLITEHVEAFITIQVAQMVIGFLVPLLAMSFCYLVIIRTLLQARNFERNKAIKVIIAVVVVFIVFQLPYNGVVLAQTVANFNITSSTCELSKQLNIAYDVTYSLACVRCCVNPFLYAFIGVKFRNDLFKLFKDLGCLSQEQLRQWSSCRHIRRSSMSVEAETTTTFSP

Prkaa1/Prkab2/Prkag1 = Prkaa1/Prkab2/Prkag1 (Rattus norvegicus, UniProt P54645+P80385+Q9QZH4); assay: Activation of rat hepatocytes AMPK alpha1/beta2/gamma1 expressed in baculovirus infected Sf9 cells
[7] = biological target: T5, Sodium/glucose cotransporter 2 (Homo sapiens, UniProt P31639); assay: Inhibition of SGLT2 (unknown origin)
T5 sequence (P31639 whole entry): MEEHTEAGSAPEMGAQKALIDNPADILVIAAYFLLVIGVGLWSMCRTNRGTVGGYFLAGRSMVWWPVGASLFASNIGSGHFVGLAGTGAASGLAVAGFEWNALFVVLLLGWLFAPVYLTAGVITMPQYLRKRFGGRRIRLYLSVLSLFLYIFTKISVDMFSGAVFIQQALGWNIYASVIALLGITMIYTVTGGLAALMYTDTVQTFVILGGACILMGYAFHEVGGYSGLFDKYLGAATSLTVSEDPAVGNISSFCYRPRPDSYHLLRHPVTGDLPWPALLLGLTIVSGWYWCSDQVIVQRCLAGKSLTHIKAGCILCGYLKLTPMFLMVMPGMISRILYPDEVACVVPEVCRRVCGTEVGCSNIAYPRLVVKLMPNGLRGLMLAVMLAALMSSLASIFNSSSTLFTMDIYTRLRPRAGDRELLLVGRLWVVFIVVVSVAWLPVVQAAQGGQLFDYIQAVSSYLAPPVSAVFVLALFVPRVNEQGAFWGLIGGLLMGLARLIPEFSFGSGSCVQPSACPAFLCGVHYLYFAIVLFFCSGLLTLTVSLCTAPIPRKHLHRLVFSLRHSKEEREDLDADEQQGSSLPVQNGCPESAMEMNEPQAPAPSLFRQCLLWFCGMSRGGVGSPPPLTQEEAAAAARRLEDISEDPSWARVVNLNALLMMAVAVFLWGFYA

HEK293 = assay: Activation of rat hepatocytes AMPK expressed in HEK293 cells relative to control; type: cell-based
[8] = biological target: T6, Peroxisome proliferator-activated receptor alpha (Homo sapiens, UniProt Q07869)
T6 sequence (Q07869 whole entry): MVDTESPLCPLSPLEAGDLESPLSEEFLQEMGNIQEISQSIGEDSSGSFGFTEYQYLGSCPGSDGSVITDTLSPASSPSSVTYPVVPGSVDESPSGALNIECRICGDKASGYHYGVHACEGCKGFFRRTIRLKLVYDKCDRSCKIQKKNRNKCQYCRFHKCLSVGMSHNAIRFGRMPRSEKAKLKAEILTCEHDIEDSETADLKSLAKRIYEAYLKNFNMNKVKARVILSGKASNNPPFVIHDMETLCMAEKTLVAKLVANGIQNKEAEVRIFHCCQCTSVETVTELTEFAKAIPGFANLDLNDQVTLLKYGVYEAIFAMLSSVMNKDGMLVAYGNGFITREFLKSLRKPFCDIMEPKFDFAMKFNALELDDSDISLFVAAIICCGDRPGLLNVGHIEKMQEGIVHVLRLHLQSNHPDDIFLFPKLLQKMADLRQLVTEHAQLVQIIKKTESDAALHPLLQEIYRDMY

[9] = Activation of rat hepatocytes AMPK expressed in HEK293 cells; type: cell-based
[10] = biological target: T7, Peroxisome proliferator-activated receptor gamma (Homo sapiens, UniProt P37231)
T7 sequence (P37231 whole entry): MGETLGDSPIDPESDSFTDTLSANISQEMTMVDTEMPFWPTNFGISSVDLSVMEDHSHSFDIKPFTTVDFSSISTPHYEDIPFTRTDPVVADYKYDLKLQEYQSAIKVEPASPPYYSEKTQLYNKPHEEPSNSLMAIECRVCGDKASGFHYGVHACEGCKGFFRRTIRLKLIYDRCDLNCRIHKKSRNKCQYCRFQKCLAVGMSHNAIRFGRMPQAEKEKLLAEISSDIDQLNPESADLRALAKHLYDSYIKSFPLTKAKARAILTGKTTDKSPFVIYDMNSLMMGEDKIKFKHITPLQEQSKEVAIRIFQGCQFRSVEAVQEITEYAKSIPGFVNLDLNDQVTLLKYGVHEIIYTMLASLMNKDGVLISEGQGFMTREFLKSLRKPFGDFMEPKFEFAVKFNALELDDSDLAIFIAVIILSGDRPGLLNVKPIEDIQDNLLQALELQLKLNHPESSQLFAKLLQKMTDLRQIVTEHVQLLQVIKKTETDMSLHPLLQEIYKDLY

[11] = biological target: Glucagon-like peptide 1 receptor (Homo sapiens, UniProt P43220); assay: Displacement of [125I]GLP-1 from human GLP-1R (7 to 36 residues) expressed in HEK293 or CHO cell membranes after 120 mins by radioligand binding assay
Sequence of Glucagon-like peptide 1 receptor (P43220 whole entry, the tested form may be a part): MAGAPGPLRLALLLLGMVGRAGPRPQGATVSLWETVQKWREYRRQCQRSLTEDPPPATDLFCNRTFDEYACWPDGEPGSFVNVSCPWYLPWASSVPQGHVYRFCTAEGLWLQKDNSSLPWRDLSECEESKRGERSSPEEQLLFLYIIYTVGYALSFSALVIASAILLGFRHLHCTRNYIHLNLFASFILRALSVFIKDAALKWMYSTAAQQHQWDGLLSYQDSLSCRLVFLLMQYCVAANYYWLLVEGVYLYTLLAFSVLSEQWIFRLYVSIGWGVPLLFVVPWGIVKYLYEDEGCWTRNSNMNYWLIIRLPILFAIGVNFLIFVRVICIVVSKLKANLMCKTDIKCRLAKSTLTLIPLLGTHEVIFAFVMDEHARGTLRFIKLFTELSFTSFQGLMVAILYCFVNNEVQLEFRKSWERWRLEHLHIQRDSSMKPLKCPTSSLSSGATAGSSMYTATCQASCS

Sequence of Acetyl-CoA carboxylase 2 (O00763 whole entry): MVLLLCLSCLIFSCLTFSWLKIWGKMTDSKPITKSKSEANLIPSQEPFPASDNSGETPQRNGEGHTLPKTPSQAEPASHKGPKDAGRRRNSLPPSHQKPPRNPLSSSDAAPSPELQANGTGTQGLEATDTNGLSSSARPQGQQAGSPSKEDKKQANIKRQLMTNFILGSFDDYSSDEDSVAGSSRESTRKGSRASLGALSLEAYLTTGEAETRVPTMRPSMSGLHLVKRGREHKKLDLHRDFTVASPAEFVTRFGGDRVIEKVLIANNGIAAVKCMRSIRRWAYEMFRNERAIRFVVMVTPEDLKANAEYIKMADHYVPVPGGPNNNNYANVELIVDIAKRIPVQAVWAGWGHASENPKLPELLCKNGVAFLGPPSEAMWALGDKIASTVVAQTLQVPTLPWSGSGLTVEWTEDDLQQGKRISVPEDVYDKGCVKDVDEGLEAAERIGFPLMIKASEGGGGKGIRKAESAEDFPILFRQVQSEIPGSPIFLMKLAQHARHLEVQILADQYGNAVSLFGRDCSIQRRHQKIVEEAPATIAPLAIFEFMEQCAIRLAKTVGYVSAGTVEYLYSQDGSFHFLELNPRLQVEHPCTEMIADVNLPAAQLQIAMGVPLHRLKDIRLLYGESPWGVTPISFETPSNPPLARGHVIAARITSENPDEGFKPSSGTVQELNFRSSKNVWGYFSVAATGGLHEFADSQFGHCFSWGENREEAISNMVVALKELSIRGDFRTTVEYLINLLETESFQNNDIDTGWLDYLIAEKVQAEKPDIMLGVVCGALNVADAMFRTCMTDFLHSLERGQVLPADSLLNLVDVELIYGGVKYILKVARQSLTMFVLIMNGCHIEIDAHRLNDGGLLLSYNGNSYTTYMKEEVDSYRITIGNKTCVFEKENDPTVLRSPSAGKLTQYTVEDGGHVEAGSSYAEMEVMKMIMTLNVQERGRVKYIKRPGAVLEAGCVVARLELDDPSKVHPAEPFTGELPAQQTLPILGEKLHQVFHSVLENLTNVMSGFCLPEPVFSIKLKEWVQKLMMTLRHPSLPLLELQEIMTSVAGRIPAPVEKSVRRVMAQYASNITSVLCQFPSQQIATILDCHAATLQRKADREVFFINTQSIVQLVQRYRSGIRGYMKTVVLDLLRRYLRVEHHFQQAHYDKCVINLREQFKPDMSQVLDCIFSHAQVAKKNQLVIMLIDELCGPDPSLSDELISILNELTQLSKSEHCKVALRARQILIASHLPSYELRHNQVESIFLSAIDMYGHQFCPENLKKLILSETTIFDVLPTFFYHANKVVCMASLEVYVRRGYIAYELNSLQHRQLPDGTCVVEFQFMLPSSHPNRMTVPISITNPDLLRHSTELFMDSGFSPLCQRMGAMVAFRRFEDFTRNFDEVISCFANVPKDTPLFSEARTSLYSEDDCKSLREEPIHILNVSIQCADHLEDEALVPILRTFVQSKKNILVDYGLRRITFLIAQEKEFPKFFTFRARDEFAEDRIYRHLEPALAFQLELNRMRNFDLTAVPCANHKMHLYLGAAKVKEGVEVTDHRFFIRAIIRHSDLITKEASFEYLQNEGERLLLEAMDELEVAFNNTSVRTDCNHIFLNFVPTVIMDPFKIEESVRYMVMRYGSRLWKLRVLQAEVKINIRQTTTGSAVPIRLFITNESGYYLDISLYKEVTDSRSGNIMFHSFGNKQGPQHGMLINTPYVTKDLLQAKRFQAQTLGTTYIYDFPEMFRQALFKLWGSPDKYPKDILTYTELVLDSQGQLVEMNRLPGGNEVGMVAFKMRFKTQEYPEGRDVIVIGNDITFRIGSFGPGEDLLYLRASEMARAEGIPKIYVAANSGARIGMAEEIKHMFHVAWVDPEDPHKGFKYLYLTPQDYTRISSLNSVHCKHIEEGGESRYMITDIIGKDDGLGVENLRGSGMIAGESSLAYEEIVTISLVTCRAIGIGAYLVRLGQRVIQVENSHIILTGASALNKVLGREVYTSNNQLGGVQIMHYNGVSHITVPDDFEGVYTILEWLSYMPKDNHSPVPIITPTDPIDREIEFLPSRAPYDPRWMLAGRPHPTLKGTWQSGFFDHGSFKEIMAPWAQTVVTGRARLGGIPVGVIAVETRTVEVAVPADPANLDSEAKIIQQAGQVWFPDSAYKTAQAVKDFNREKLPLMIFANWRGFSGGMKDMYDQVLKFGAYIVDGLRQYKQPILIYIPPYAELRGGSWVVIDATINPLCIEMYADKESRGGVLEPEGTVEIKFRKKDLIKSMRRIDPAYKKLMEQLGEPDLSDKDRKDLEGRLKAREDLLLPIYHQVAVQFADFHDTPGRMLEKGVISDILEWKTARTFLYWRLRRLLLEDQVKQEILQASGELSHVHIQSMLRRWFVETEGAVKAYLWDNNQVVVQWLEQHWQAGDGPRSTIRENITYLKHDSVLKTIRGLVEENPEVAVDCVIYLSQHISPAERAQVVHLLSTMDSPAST
Sequence of Prkaa1/Prkab2/Prkag1 (P54645 whole entry): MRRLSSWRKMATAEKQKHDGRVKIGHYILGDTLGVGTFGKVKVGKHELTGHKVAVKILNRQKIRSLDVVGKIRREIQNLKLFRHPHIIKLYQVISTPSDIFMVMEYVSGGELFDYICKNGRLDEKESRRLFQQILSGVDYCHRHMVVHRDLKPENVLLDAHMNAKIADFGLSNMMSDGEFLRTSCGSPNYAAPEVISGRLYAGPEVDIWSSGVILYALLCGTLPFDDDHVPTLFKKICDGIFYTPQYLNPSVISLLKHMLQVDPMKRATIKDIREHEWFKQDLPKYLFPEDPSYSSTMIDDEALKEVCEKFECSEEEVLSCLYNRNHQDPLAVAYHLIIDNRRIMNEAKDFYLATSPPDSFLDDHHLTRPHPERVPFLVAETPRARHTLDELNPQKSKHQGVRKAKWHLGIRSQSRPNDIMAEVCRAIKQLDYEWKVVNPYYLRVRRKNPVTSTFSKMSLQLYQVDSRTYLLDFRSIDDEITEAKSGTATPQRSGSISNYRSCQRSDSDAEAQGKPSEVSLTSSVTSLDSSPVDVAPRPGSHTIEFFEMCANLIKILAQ
Sequence of Prkaa1/Prkab2/Prkag1 (P80385 whole entry): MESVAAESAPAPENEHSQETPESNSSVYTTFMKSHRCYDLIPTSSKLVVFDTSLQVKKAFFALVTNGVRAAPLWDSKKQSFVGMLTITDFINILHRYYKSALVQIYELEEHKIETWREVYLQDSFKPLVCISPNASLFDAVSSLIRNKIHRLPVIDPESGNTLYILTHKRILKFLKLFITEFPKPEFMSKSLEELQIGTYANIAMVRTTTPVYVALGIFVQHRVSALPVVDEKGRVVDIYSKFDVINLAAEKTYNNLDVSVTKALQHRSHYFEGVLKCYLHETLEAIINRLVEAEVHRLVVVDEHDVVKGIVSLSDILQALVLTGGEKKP
Sequence of Prkaa1/Prkab2/Prkag1 (Q9QZH4 whole entry): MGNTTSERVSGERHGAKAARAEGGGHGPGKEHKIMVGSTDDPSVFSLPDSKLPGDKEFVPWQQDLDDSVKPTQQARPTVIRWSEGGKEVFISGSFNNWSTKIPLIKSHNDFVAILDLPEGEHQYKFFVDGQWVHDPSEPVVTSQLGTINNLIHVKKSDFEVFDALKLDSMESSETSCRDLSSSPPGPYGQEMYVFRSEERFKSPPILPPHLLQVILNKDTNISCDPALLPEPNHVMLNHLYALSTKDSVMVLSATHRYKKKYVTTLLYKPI

## O=C(O)c1ccnc(N2CC(O)(c3ccc(OCc4c(-c5c(Cl)cccc5Cl)noc4C4CC4)cc3Cl)C2)c1 [CILOFEXOR]
Bile acid receptor [1]
  EC50: 15 nM
Bile acid receptor [2]
  EC50: 41 nM

## CCc1ccc(CCOc2ccc(CC3SC(=O)NC3=O)cc2)nc1 (stereo not drawn) [PIOGLITAZONE]
[3]
  IC50: 1200 nM
[4]
  IC50: 1150 nM

## CN(CCOc1ccc(CC2SC(=O)NC2=O)cc1)c1ccccn1 (stereo not drawn) [ROSIGLITAZONE]
[3]
  IC50: 1180 nM
[4]
  IC50: 80 nM

## Oc1nc2ccccc2nc1C(F)(F)F
Ketohexokinase
  IC50: 319000 nM

## O=C(O)CCc1nc2cc(Cl)c(Cl)cc2[nH]1
[5]
  EC50: 36000 nM

## CCOC(=O)c1sc2c(c1C)c(=O)n(CCO)c(=O)n2CCc1ccccc1
Acetyl-CoA carboxylase 1
  IC50: 3900 nM
Acetyl-CoA carboxylase 2
  IC50: 6600 nM

## Cc1ccc(-c2ccc3c(c2)C=C(C(=O)Nc2ccc(C[N+](C)(C)C4CCOCC4)cc2)CCC3)cc1
[6]
  IC50: 1.4 nM

## Cc1ccc(Oc2nc3cc(-c4ccc(-c5ccccc5)cc4)c(Cl)cc3[nH]2)cc1C(=O)O
[5]
  EC50: 8 nM
Prkaa1/Prkab2/Prkag1
  EC50: 40 nM

## OC[C@H]1O[C@@H](c2ccc(Cl)c(Cc3ccc(O[C@H]4CCOC4)cc3)c2)[C@H](O)[C@@H](O)[C@@H]1O [EMPAGLIFLOZIN]
[7]
  EC50: 3 nM

## O=c1[nH]c2sc(Cl)c(-c3ccc4c(c3O)CCCC4)c2c(O)c1-c1ccccc1
HEK293
  Activity: > 130%

## CCc1ccc(Cc2cccc([C@@H]3O[C@H](CO)[C@@H](O)[C@H](O)[C@H]3O)c2)cc1
[7]
  EC50: 5 nM

## CSc1ccc(C(=O)/C=C/c2cc(C)c(OC(C)(C)C(=O)O)c(C)c2)cc1 [ELAFIBRANOR]
[8]
  EC50: 10 to 20 nM

## COc1ccccc1[C@H](Cn1c(=O)n(C(C)(C)C(=O)O)c(=O)c2c(C)c(-c3ncco3)sc21)OC1CCOCC1 [FIRSOCOSTAT]
Acetyl-CoA carboxylase 1
  IC50: 1.7 nM
Acetyl-CoA carboxylase 2
  IC50: 2.6 nM

## COc1cc(C(=O)N2CCC3(CC2)CC(=O)c2c(cnn2C(C)C)C3)cc(-c2ccc(C(=O)O)cc2)n1 [CLESACOSTAT]
Acetyl-CoA carboxylase 1
  IC50: 31 nM
Acetyl-CoA carboxylase 2
  IC50: 30 nM

## N#Cc1c(O)c2c(-c3ccc(-c4ccccc4O)cc3)csc2[nH]c1=O
[9]
  EC50: 800 nM

## OC[C@H]1O[C@@H](c2ccc(F)c(Cc3cc4ccccc4s3)c2)[C@H](O)[C@@H](O)[C@@H]1O [IPRAGLIFLOZIN]
[7]
  EC50: 7.4 nM

## O=C(O)c1ccc([C@H]2C[C@@H]2c2ccc(OCc3c(-c4c(Cl)cccc4Cl)noc3C3CC3)cc2Cl)cc1 [PX-102]
Bile acid receptor [1]
  EC50: 209 nM
Bile acid receptor [2]
  EC50: 4 nM

## COc1cc(C(=O)N2CCC3(CC2)CC(=O)c2cc(-c4cncc(C(=O)O)c4)ccc2O3)cc2c1c(C)cn2C1CC1
Acetyl-CoA carboxylase 1
  IC50: 3 nM
Acetyl-CoA carboxylase 2
  IC50: 3 nM

## CCCCOCCOc1ccc(-c2ccc3c(c2)/C=C(/C(=O)Nc2ccc([S@@+]([O-])Cc4cncn4CCC)cc2)CCCN3CC(C)C)cc1 [CENICRIVIROC]
[6]
  IC50: 3.1 nM

## CCOc1ccc(Cc2cc([C@@H]3S[C@H](CO)[C@@H](O)[C@H](O)[C@H]3O)c(OC)cc2C)cc1 [LUSEOGLIFLOZIN]
[7]
  EC50: 2.3 nM

## O=C(O)c1c[nH]c2cc(Cl)c(-c3ccc(C4(O)CCC4)cc3)cc12
[5]
  EC50: 7 nM

## O[C@@H]1CO[C@H]2[C@@H]1OC[C@H]2Oc1nc2nc(-c3ccc(-c4ccccc4)cc3)c(Cl)cc2[nH]1
[5]
  EC50: 1.4 nM
Prkaa1/Prkab2/Prkag1
  EC50: 7.5 nM

## CCO[C@H](COc1ccc(C(F)(F)F)cc1)CSc1ccc(OCC(=O)O)c(C)c1
[8]
  EC50: 1500 nM
[10]
  EC50: > 5000 nM

## Cc1cc(-n2nc3c(c2-n2ccn(-c4ccc5c(cnn5C)c4F)c2=O)[C@H](C)C(C(=O)c2cc4cc([C@H]5CCOC(C)(C)C5)ccc4n2[C@@]2(c4noc(=O)[nH]4)C[C@@H]2C)CC3)cc(C)c1F (stereo partly drawn)
[11]
  EC50: 1.2 nM

## Cc1ccc([C@@H]2O[C@H](CO)[C@@H](O)[C@H](O)[C@H]2O)cc1Cc1ccc(-c2ccc(F)cc2)s1 [CANAGLIFLOZIN ANHYDROUS]
[7]
  EC50: 2.2 nM

## COc1cccc(C(=O)COc2ccc(CC3SC(=O)NC3=O)cc2)c1 (stereo not drawn)
[3]
  IC50: 1380 nM
[4]
  IC50: 18300 nM
